# Experimental data from article PMC8041284, “Tunable Methacrylamides for Covalent Ligand Directed Release Chemistry” (Journal of the American Chemical Society, 2021).
# Target: BTK (Homo sapiens, UniProt Q06187)
# Test: biochemical
# Conditions: read-out: BTK inhibition (%)
# Chain of BTK (Q06187 402-655 limits assumed): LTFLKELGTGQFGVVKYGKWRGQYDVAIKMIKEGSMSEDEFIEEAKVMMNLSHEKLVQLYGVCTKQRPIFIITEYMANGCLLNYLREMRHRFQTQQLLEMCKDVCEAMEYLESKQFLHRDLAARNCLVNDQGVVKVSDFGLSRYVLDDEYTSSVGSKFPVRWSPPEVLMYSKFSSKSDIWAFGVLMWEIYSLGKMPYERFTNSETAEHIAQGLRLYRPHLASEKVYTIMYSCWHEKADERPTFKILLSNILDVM
row,SMILES,inhibition at 10 µM
1,Cn1c(COP(=O)(NCCBr)NCCBr)cnc1[N+](=O)[O-] [PCM-0214844],-4.7%
2,CCCCCCC(=O)O[C@H]1CC[C@H]2[C@@H]3CCC4=CC(=O)CC[C@]4(C)[C@H]3CC[C@]12C [PCM-0214913],6.2%

# Same assay, conditions: read-out: BTK inhibition (%), 0.75 uM BTK, […] probe 3l, 15 min preincubation
row,SMILES,inhibition at 10 µM
1,Cc1ncc([N+](=O)[O-])n1CCO [PCM-0085759],-5.4%
2,C[C@@H]1[C@H](O)[C@@H](C)/C=C/C=C/C=C/C=C/C=C/C=C/C=C/[C@H](O[C@@H]2O[C@H](C)[C@@H](O)[C@H](N)[C@@H]2O)C[C@@H]2O[C@](O)(C[C@@H](O)C[C@@H](O)[C@H](O)CC[C@@H](O)C[C@@H](O)CC(=O)O[C@H]1C)C[C@H](O)[C@H]2C(=O)O [PCM-0214634],-3.1%
3,COc1cc(Cc2cnc(N)nc2N)cc(OC)c1OC [PCM-0065007],-7.8%
4,O=C(NNc1ccccc1)c1ccncc1 [PCM-0095808],-11.6%
5,CC1(C)CC[C@]2(C(=O)O)CCC3=C(CC[C@@H]4[C@@]5(C)C[C@H](O)[C@H](O)[C@@](C)(C(=O)O)[C@@H]5CC[C@@]34C)[C@@H]2C1 [PCM-0216490],10.8%
6,Cc1ccccc1N1C(=O)c2cc(S(N)(=O)=O)c(Cl)cc2NC1C (centres unmarked) [PCM-0065217],-4.7%
7,Nc1ccn([C@@H]2CS[C@H](CO)O2)c(=O)n1 [PCM-0085971],14%
8,CCCCCCCCCCCCCCCC(=O)OC [PCM-0216632],25.5%
9,C#C[C@]1(O)CC[C@H]2[C@@H]3CCC4=CC(=O)CC[C@@H]4[C@H]3CC[C@@]21C [PCM-0085792],3.1%
10,Cc1[nH]c(/C=C2\C(=O)Nc3ccc(F)cc32)c(C)c1C(=O)NCCN1CCCC1 [PCM-0216233],18.7%
11,Cc1cccc(-c2[nH]c(CNc3ccccc3F)nc2-c2ccc3ncnn3c2)n1 [PCM-0215382],-1.5%
12,Cc1c(C)c(NCC(=O)N(C)C2CCN(Cc3ccc(C(N)=O)cc3)CC2)c(C)c(C)c1N [PCM-0215800],12.4%
13,O=C(CO)[C@@H](O)[C@H](O)[C@@H](O)CO [PCM-0216101],-4.3%
14,C/C(=C\CNc1ncnc2nc[nH]c12)CO [PCM-0215137],-13.2%
15,COc1ccc2cccc(CCNC(C)=O)c2c1 [PCM-0065343],-16.3%
16,CNc1ccc([N+](=O)[O-])c(Nc2ccc3[nH]ncc3c2)n1 [PCM-0215769],32.4%
17,CC1(C)CC[C@]2(C(=O)O)CCC3=C([C@@H](CCl)C[C@@H]4[C@@]5(C)C[C@H](O)[C@H](O)[C@@](C)(C(=O)O)[C@@H]5CC[C@@]34C)[C@@H]2C1 [PCM-0216388],-4.6%
18,O=C(c1ccc(OCCN2CCCCC2)cc1)c1c(-c2ccc(O)cc2)sc2cc(O)ccc12 [PCM-0065394],85.5%
19,CC(C)NCC(O)c1ccccc1Cl (centres unmarked) [PCM-0214757],10.9%
20,CC(C)(N)C(=O)N[C@H](COCc1ccccc1)C(=O)N1CCC2(CC1)CN(S(C)(=O)=O)c1ccccc12 [PCM-0216059],-11.7%
21,O=C1c2ccc(Nc3ccc(F)cc3F)cc2CCc2ccc(OC[C@H](O)CO)cc21 [PCM-0215248],13.1%
22,COCC1=C(C(=O)OC(C)OC(=O)OC(C)C)N2C(=O)[C@@H](NC(=O)/C(=N\OC)c3csc(N)n3)[C@H]2SC1 (some centres unmarked) [PCM-0216141],-11.6%
23,C=C(C)[C@@H]1CCC2=CC(=O)C[C@@H](C)[C@]2(C)C1 [PCM-0216368],12.4%
24,CCOc1cc(CC(=O)N[C@@H](CC(C)C)c2ccccc2N2CCCCC2)ccc1C(=O)O [PCM-0086171],17.1%
25,CC(C(=O)O)c1ccc2c(c1)CC(=O)c1ccccc1S2 (centres unmarked) [PCM-0095453],-15.9%
26,C[C@]12CC[C@@H]3c4ccc(O)cc4CC[C@H]3[C@@H]1CCC2=O [PCM-0214644],-4.8%

row,SMILES,inhibition at 10 µM
1,CC(C)N(CCCCOCC(=O)NS(C)(=O)=O)c1cnc(-c2ccccc2)c(-c2ccccc2)n1 [PCM-0214894],11.7%
2,C[C@@H](Nc1cc(F)cc(F)c1)c1cc(C(=O)N(C)C)cc2c(=O)cc(N3CCOCC3)oc12 [PCM-0215502],-15.2%
3,C[C@H](NC(=O)Cc1cc(F)cc(F)c1)C(=O)N[C@H](C(=O)OC(C)(C)C)c1ccccc1 [PCM-0095251],-29%
4,O=C1NC(=NCc2cccs2)S/C1=C\c1ccc2ncccc2c1 [PCM-0215455],-9%
5,C/C=C(/C)C(=O)OC(=O)/C(C)=C\C [PCM-0215943],-8.6%
6,NC(=S)N/N=C/c1ncccc1N [PCM-0095816],-1.5%
7,COc1ccccc1N1CCN(CCN(C(=O)C2CCCCC2)c2ccccn2)CC1 [PCM-0064827],-6.2%
8,COc1cc2c(Nc3ccc(Br)cc3F)ncnc2cc1OCC1CCN(C)CC1 [PCM-0094968],25.5%
9,NC(=NCCCCCCN=C(N)/N=C(\N)Nc1ccc(Cl)cc1)/N=C(\N)Nc1ccc(Cl)cc1 [PCM-0085888],3.1%
10,O=c1[nH]cnc2c1ncn2[C@@H]1O[C@H](CO)[C@@H](O)[C@H]1O [PCM-0094864],-3.1%
11,CN[C@@H]1[C@@H](O)[C@@H](O[C@@H]2[C@@H](O)[C@H](O[C@H]3O[C@H](CN)[C@@H](O)[C@H](O)[C@H]3O)[C@@H](N)C[C@H]2NC(=O)[C@@H](O)CN)OC[C@]1(C)O [PCM-0215401],4.3%
12,C=C1C[C@@]23CC[C@H]4[C@@](C)(CCC[C@@]4(C)C(=O)O[C@@H]4O[C@H](CO)[C@@H](O)[C@H](O)[C@H]4O)[C@@H]2CC[C@]1(O[C@@H]1O[C@H](CO)[C@@H](O)[C@H](O[C@@H]2O[C@H](CO)[C@@H](O)[C@H](O)[C@H]2O)[C@H]1O[C@@H]1O[C@H](CO)[C@@H](O)[C@H](O)[C@H]1O)C3 [PCM-0215017],0.8%
13,C/C=C1\C(=O)C[C@H]2[C@@H]3CCC4=CC(=O)CC[C@]4(C)[C@H]3CC[C@]12C [PCM-0216120],-1.6%
14,C[C@H]1[C@H](NC(=O)/C(=N\OC(C)(C)C(=O)O)c2csc(N)n2)C(=O)N1S(=O)(=O)O [PCM-0085816],-15.6%
15,CNC(=C[N+](=O)[O-])NCCSCc1csc(CN(C)C)n1 [PCM-0086495],2.1%
16,COc1cc(N2CCC(N(C)C)CC2)ccc1Nc1ncc(Cl)c(Nc2ccccc2P(C)(C)=O)n1 [PCM-0215177],64.8%
17,Cc1ccc(Cl)c(Nc2ccccc2C(=O)O)c1Cl [PCM-0214800],9.7%
18,CC(=O)SCC(Cc1ccccc1)C(=O)NCC(=O)OCc1ccccc1 (centres unmarked) [PCM-0086128],3.1%
19,N[C@@H](Cc1cc(I)c(Oc2cc(I)c(O)c(I)c2)c(I)c1)C(=O)O [PCM-0085937],19.5%
20,CCOC(=O)[C@H](CCc1ccccc1)N[C@@H](C)C(=O)N1Cc2ccccc2C[C@H]1C(=O)O [PCM-0086504],-16.3%
21,CCCSc1nc(N[C@@H]2C[C@H]2c2ccc(F)c(F)c2)c2nnn([C@@H]3C[C@H](OCCO)[C@@H](O)[C@H]3O)c2n1 [PCM-0095628],-34.2%
22,O=C(Nc1ccc(-c2ccnc(Nc3ccc(N4CCOCC4)cc3)n2)cc1)[C@@H]1CCCN1 [PCM-0215262],4.8%
23,CO[C@@H]1[C@H](OC(=O)/C=C/C=C/C=C/C=C/C(=O)O)CC[C@]2(CO2)[C@H]1[C@@]1(C)O[C@@H]1CC=C(C)C [PCM-0215572],3.9%
24,C#Cc1cccc(Nc2ncnc3cc(OCCOC)c(OCCO)cc23)c1 [PCM-0095242],31%
25,NS(=O)(=O)c1cc(Cl)c(Cl)c(S(N)(=O)=O)c1 [PCM-0086380],-4.7%
